Tests used:
A549 = test: Cancer cell growth inhibition, SRB assay; format: cell-based, human; conditions: Homo sapiens, 144 h; A549 (Lung); SRB at Day 6; triplicate
HCT-15 = test: Cancer cell growth inhibition, SRB assay; format: cell-based, human; conditions: Homo sapiens, 144 h; HCT-15 (Colon); SRB at Day 6; triplicate
human CPT1A = target: T1, human CPT1A (Homo sapiens, UniProt P50416); test: Human CPT1A LC/MS assay; format: biochemical; conditions: human CPT1A LC/MS assay, dose response format
T1 construct: made in house; host or cells: Saccharomyces cerevisiae (pESC-trp) or cultured mammalian cells (pCDNA3.1); mitochondrial extract
T1 sequence (P50416 1-773): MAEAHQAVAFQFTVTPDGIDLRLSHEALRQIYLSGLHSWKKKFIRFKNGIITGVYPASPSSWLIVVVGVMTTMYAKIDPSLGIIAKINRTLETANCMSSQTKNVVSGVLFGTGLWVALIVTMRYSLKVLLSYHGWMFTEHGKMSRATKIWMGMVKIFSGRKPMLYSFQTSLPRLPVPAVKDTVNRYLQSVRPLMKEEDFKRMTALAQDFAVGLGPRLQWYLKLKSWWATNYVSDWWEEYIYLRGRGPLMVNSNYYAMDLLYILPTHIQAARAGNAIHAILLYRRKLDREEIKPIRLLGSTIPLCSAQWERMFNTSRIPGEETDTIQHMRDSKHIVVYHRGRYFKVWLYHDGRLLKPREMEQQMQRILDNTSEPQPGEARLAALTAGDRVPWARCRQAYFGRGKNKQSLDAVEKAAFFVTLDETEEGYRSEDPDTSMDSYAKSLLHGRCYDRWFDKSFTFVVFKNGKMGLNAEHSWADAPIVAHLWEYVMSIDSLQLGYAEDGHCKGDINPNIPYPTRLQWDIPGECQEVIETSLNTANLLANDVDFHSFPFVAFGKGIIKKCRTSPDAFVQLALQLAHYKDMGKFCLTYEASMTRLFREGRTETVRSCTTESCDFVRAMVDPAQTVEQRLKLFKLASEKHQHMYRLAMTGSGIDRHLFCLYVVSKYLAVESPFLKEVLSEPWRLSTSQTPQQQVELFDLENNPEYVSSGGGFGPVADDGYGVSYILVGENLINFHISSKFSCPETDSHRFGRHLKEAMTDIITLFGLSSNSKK

SW620 = test: Cancer cell growth inhibition, SRB assay; format: cell-based, human; conditions: Homo sapiens, SW-620, 144 h; SW620 (Colon); SRB at Day 6; triplicate
SW480 = test: Cancer cell growth inhibition, SRB assay; format: cell-based, human; conditions: Homo sapiens, 144 h; SW480 (Colon); SRB at Day 6; triplicate
COLO-205 = test: Cancer cell growth inhibition, SRB assay; format: cell-based, human; conditions: Homo sapiens, 144 h; COLO-205 (Colon); SRB at Day 6; triplicate

Compound: CCCCCCCCc1ccc(NC(=O)NC2(CC(=O)O)CC[N+](C)(C)C2)cc1 (stereo not drawn) [Example S18, 3-(carboxymethyl)-1,1-dimethyl-3-(3-(4-octylphenyl)ureido)-pyrrolidinium 2,2,2-trifluoroacetate]
- GI50 (A549): 38 µM
- GI50 (HCT-15): 5.4 µM
- IC50 (human CPT1A): 10 to 100 µM
- GI50 (SW620): 3.1 µM
- GI50 (SW480): 1.2 µM
- GI50 (COLO-205): 1.9 µM

Compound: CCCCCCCCc1ccc(NS(=O)(=O)NC2(CC(=O)O)CCN(C)CC2)cc1 [Example S7, 4-(carboxymethyl)-1-methyl-4-(N-(4-octylphenyl)sulfamoylamino)-piperidinium 2,2,2-trifluoroacetate]
- GI50 (A549): 52 µM
- GI50 (HCT-15): 80 µM
- IC50 (human CPT1A): 10 to 100 µM
- GI50 (SW620): > 50 µM
- GI50 (SW480): 68 µM
- GI50 (COLO-205): 74 µM

Compound: CCCCCCCCc1ccc(NC(=O)NC2(CC(=O)O)CNC2)cc1 [Example S23, 3-(carboxymethyl)-3-(3-(4-octylphenyl)ureido)azetidinium 2,2,2-trifluoroacetate]
- GI50 (A549): > 50 µM
- GI50 (HCT-15): 28 µM
- IC50 (human CPT1A): 1000 to 2500 µM
- GI50 (SW620): 43 µM
- GI50 (SW480): 28 µM
- GI50 (COLO-205): 35 µM

Compound: CCCCCCCCc1ccc(NS(=O)(=O)NC2(CC(=O)O)CC[N+](C)(C)CC2)cc1 [Example S8, 4-(carboxymethyl)-1,1-dimethyl-4-(N-(4-octylphenyl)sulfamoylamino)piperidinium 2,2,2-trifluoroacetate]
- GI50 (A549): 10 µM
- GI50 (HCT-15): 9 µM
- IC50 (human CPT1A): 1 to 10 µM
- GI50 (SW620): 8.4 µM
- GI50 (SW480): 2.8 µM
- GI50 (COLO-205): 5.3 µM

Compound: CCCCCCCCc1ccc(NC(=O)NC2(CC(=O)O)CCC[N+](C)(C)C2)cc1 (stereo not drawn) [Example S10, 3-(carboxymethyl)-1,1-dimethyl-3-(3-(4-octylphenyl)ureido)-piperidinium 2,2,2-trifluoroacetate]
- GI50 (A549): 73 µM
- GI50 (HCT-15): 16 µM
- IC50 (human CPT1A): 10 to 100 µM
- GI50 (SW620): 2.5 µM
- GI50 (SW480): 0.7 µM
- GI50 (COLO-205): 1 µM

Compound: CCCCCCCCc1ccc(NS(=O)(=O)NC2(CC(=O)O)CCC[N+](C)(C)C2)cc1 (stereo not drawn) [Example S16, 3-(carboxymethyl)-1,1-dimethyl-3-(N-(4-octylphenyl)sulfamoylamino)-piperidinium 2,2,2-trifluoroacetate]
- GI50 (A549): 6.2 µM
- GI50 (HCT-15): 36 µM
- IC50 (human CPT1A): 1 to 10 µM
- GI50 (SW620): 20 µM
- GI50 (SW480): 4 µM
- GI50 (COLO-205): 10 µM

Compound: CCCCCCCCc1ccc(NC(=O)NC2(CC(=O)O)C[N+](C)(C)C2)cc1 [Example S24, 3-(Carboxymethyl)-1,1-dimethyl-3-(3-(4-octylphenyl)ureido)azetidinium 2,2,2-trifluoroacetate]
- GI50 (A549): 36 µM
- GI50 (HCT-15): 38 µM
- IC50 (human CPT1A): 10 to 100 µM
- GI50 (SW620): 44 µM
- GI50 (SW480): 29 µM
- GI50 (COLO-205): 28 µM

From patent publication US8680282B2, “Cyclic inhibitors of carnitine palmitoyltransferase and treating cancer” (University Health Network, priority 2007, dated 2014)
